Active and inactive are the calls of the source. No cut-off for these calls is given here.
How the values were obtained:
[1] = system: Plasmodium yoelii nigeriensis; assay: Antimalarial activity as reduced parasitaemia against multidrug-resistant Plasmodium yoelii nigeriensis in Swiss mice (Mus musculus) at 96 mg/kg peroral dose for 4 days; assay type: functional; design: scale not given: the % may be the effect or the level left; settings: route oral
[2] = system: Plasmodium yoelii nigeriensis; assay: Antimalarial activity as survival time against multidrug-resistant Plasmodium yoelii nigeriensis in Swiss mice (Mus musculus) at 96 mg/kg peroral dose for 4 days; assay type: functional; settings: route oral
[3] = system: Plasmodium yoelii nigeriensis; assay: Antimalarial activity as cures against multidrug-resistant Plasmodium yoelii nigeriensis in Swiss mice (Mus musculus) at 96 mg/kg peroral dose for 4 days; assay type: functional, organism-based; design: dose 96 mg/kg
[4] = system: Plasmodium yoelii nigeriensis; assay: Antimalarial activity as reduced parasitaemia against multidrug-resistant Plasmodium yoelii nigeriensis in Swiss mice (Mus musculus) at 48 mg/kg peroral dose for 4 days; assay type: functional; design: scale not given: the % may be the effect or the level left; settings: route oral
[5] = system: Plasmodium yoelii nigeriensis; assay: Antimalarial activity as survival time against multidrug-resistant Plasmodium yoelii nigeriensis in Swiss mice (Mus musculus) at 48 mg/kg peroral dose for 4 days; assay type: functional; settings: route oral
[6] = system: Plasmodium yoelii nigeriensis; assay: Antimalarial activity as cures against multidrug-resistant Plasmodium yoelii nigeriensis infected Swiss mice (Mus musculus) at 48 mg/kg peroral dose over 4 days; assay type: functional, organism-based; design: dose 48 mg/kg
[7] = system: Plasmodium yoelii nigeriensis; assay: Antimalarial activity as reduced parasitaemia against multidrug-resistant Plasmodium yoelii nigeriensis in Swiss mice (Mus musculus) at 24 mg/kg peroral dose for 4 days; assay type: functional; design: scale not given: the % may be the effect or the level left; settings: route oral
[8] = system: Plasmodium yoelii nigeriensis; assay: Antimalarial activity as survival time against multidrug-resistant Plasmodium yoelii nigeriensis in Swiss mice (Mus musculus) at 24 mg/kg peroral dose for 4 days; assay type: functional; settings: route oral
[9] = Solubility in groundnut oil; assay type: physicochemical

Row | Compound | Activity [1] [%] | Survival [2] [days] | Activity [3] | Activity [4] [%] | Survival [5] [days] | Activity [6] | Activity [7] [%] | Survival [8] [days] | solubility [9]
1 | C=C(c1ccc(Oc2cc(Oc3ccc(C(=C)C4COC5(CCCCC5)OO4)cc3)cc(Oc3ccc(C(=C)C4COC5(CCCCC5)OO4)cc3)c2)cc1)C1COC2(CCCCC2)OO1 (centres undefined) | 26.37 | 8.4 | inactive | – | – | – | – | – | –
2 | C=C(c1ccc(OCCOc2ccc(C(=C)C3COC4(OO3)C3CC5CC(C3)CC4C5)cc2)cc1)C1COC2(OO1)C1CC3CC(C1)CC2C3 (centres undefined) | 66.39 | 7.6 | inactive | – | – | – | – | – | –
3 | C=C(c1ccc(OCCOc2ccc(C(=C)C3COC4(CCCCC4)OO3)cc2)cc1)C1COC2(CCCCC2)OO1 (centres undefined) | 86.29 | 10.6 | inactive | – | – | – | – | – | –
4 | C=C(c1ccc(Oc2ccc(Oc3ccc(C(=C)C4COC5(CCCC5)OO4)cc3)cc2)cc1)C1COC2(CCCC2)OO1 (centres undefined) | 50.83 | 7.6 | inactive | – | – | – | – | – | –
5 | C=C(c1ccc(OCC(O)COc2ccc(C(=C)C3COC4(CCCCC4)OO3)cc2)cc1)C1COC2(CCCCC2)OO1 (centres undefined) | 100 | >28 | Active | 75.86 | 8 | inactive | – | – | –
6 | C=C(c1ccc(Oc2cccc(C(=C)C3COC4(CCCCC4)OO3)c2)cc1)C1COC2(CCCCC2)OO1 (centres undefined) | 76.79 | 10 | inactive | – | – | – | – | – | –
7 | C=C(c1ccc(Oc2ccc(C(=C)C3COC4(CCCC4)OO3)cc2)cc1)C1COC2(CCCC2)OO1 (centres undefined) | 100 | >28 | Active | 100 | >28 | Active | 100 | >21.2 | –
8 | C=C(c1ccc(OCCCOc2ccc(C(=C)C3COC4(CCCCC4)OO3)cc2)cc1)C1COC2(CCCCC2)OO1 (centres undefined) | 100 | >28 | Active | 87.47 | 10.8 | inactive | – | – | –
9 | C=C(c1ccc(Oc2cc(Oc3ccc(C(=C)C4COC5(CCCC5)OO4)cc3)cc(Oc3ccc(C(=C)C4COC5(CCCC5)OO4)cc3)c2)cc1)C1COC2(CCCC2)OO1 (centres undefined) | 3.22 | 7.2 | inactive | – | – | – | – | – | –
10 | C=C(c1ccc(Oc2cccc3c(Oc4ccc(C(=C)C5COC6(CCCC6)OO5)cc4)cccc23)cc1)C1COC2(CCCC2)OO1 (centres undefined) | 40.05 | 8.4 | inactive | – | – | – | – | – | –
11 | CCO[C@@H]1C[C@@H]2CC[C@@H](C)[C@@H]3CC[C@]4(C)OO[C@@]23[C@H](O1)O4 | – | >28 | – | 100 | – | Active | 100 | – | –
12 | C=C(c1ccc(Oc2ccc(C(=C)C3COC4(CCCCC4)OO3)cc2)cc1)C1COC2(CCCCC2)OO1 (centres undefined) | 100 | >28 | Active | 100 | 11.8 | inactive | – | – | –
13 | C=C(c1ccc(OCCCOc2ccc(C(=C)C3COC4(CCCC4)OO3)cc2)cc1)C1COC2(CCCC2)OO1 (centres undefined) | 100 | >28 | Active | 100 | 12.8 | inactive | – | – | –
14 | C=C(c1ccc(OCC(O)COc2ccc(C(=C)C3COC4(CCCC4)OO3)cc2)cc1)C1COC2(CCCC2)OO1 (centres undefined) | 100 | >28 | Active | 74.32 | 9.6 | inactive | – | – | –
15 | C=C(c1ccc(Oc2ccc3ccc(Oc4ccc(C(=C)C5COC6(OO5)C5CC7CC(C5)CC6C7)cc4)cc3c2)cc1)C1COC2(OO1)C1CC3CC(C1)CC2C3 (centres undefined) | 36.07 | 7.4 | inactive | – | – | – | – | – | –
16 | C=C(c1ccc(Oc2ccc(Oc3ccc(C(=C)C4COC5(CCCCC5)OO4)cc3)cc2)cc1)C1COC2(CCCCC2)OO1 (centres undefined) | 47.33 | 8.6 | inactive | – | – | – | – | – | –
17 | C=C(c1ccc(Oc2cccc3c(Oc4ccc(C(=C)C5COC6(OO5)C5CC7CC(C5)CC6C7)cc4)cccc23)cc1)C1COC2(OO1)C1CC3CC(C1)CC2C3 (centres undefined) | 12.27 | 7.4 | inactive | – | – | – | – | – | –
18 | C=C(c1ccc(Oc2cccc(C(=C)C3COC4(OO3)C3CC5CC(C3)CC4C5)c2)cc1)C1COC2(OO1)C1CC3CC(C1)CC2C3 (centres undefined) | 7.16 | 7.6 | inactive | – | – | – | – | – | –
19 | C=C(c1ccc(Oc2ccc3ccc(Oc4ccc(C(=C)C5COC6(CCCC6)OO5)cc4)cc3c2)cc1)C1COC2(CCCC2)OO1 (centres undefined) | 42.29 | 7.8 | inactive | – | – | – | – | – | –
20 | C=C(c1ccc(OCCOc2ccc(C(=C)C3COC4(CCCC4)OO3)cc2)cc1)C1COC2(CCCC2)OO1 (centres undefined) | 100 | >28 | Active | 87.76 | 12.2 | inactive | – | – | –
21 | C=C(c1ccc(Oc2ccc(Oc3ccc(C(=C)C4COC5(OO4)C4CC6CC(C4)CC5C6)cc3)cc2)cc1)C1COC2(OO1)C1CC3CC(C1)CC2C3 (centres undefined) | 38.46 | 9 | inactive | – | – | – | – | – | –
22 | C=C(c1ccc(Oc2ccc(C(=C)C3COC4(OO3)C3CC5CC(C3)CC4C5)cc2)cc1)C1COC2(OO1)C1CC3CC(C1)CC2C3 (centres undefined) | 36.74 | 7.2 | inactive | – | – | – | – | – | –
23 | C=C(c1ccc(OCC(O)COc2ccc(C(=C)C3COC4(OO3)C3CC5CC(C3)CC4C5)cc2)cc1)C1COC2(OO1)C1CC3CC(C1)CC2C3 (centres undefined) | 26.76 | 8.6 | inactive | – | – | – | – | – | –
24 | C=C(c1ccc(OCCCOc2ccc(C(=C)C3COC4(OO3)C3CC5CC(C3)CC4C5)cc2)cc1)C1COC2(OO1)C1CC3CC(C1)CC2C3 (centres undefined) | 32.54 | 7.4 | inactive | – | – | – | – | – | –
25 | C=C(c1ccc(Oc2cccc3c(Oc4ccc(C(=C)C5COC6(CCCCC6)OO5)cc4)cccc23)cc1)C1COC2(CCCCC2)OO1 (centres undefined) | 16.36 | 8.2 | inactive | – | – | – | – | – | –
26 | C=C(c1ccc(Oc2cc(Oc3ccc(C(=C)C4COC5(OO4)C4CC6CC(C4)CC5C6)cc3)cc(Oc3ccc(C(=C)C4COC5(OO4)C4CC6CC(C4)CC5C6)cc3)c2)cc1)C1COC2(OO1)C1CC3CC(C1)CC2C3 (centres undefined) | 5.47 | 7.4 | inactive | – | – | – | – | – | –
27 | C=C(c1ccc(Oc2ccc3ccc(Oc4ccc(C(=C)C5COC6(CCCCC6)OO5)cc4)cc3c2)cc1)C1COC2(CCCCC2)OO1 (centres undefined) | – | – | – | – | – | – | – | – | Insoluble
28 | C=C(c1ccc(Oc2cccc(C(=C)C3COC4(CCCC4)OO3)c2)cc1)C1COC2(CCCC2)OO1 (centres undefined) | 100 | >28 | Active | 100 | 12.2 | inactive | – | – | –

From ChEMBL document CHEMBL1140218, “Novel bis- and tris-1,2,4-trioxanes: synthesis and antimalarial activity against multidrug-resistant Plasmodium yoelii in Swiss mice” (J Med Chem, 2008)
